Legend:
[1] = system: G361 (malignant melanoma); experiment: In vitro cytotoxicity, Calcein AM assay, G-361; assay type: cell-based; conditions: Homo sapiens, 72 h, 3-day Calcein-AM assay
Text: Because toxic compounds adversely affect cell metabolic processes, many standard cytotoxicity assays are based on measuring the rate of metabolism of various artificial substrates. The resulting product is then quantified, for example, by spectrometry. Assays can be easily modified for use in 96-well plates, A microtiter assay based on the quantification of Calcein AM metabolism was used to evaluate the cytotoxicity of cytokinins, for example meta-topolin, ortho-topolin, kinetin, BAP or its mesylate salts, but also a number of other cytokinin mesylate derivatives according to the invention. The test is widely used in drug screening programs and in chemosensitivity testing. In living cells, Calcein AM is enzymatically hydrolyzed and the accumulation of the resulting calcein is manifested by green fluorescence. The following cell lines—RPMI 8226 (multiple myeloma), CEM (T-lymphoblastic leukemia), K562 (chronic myeloid leukemia), HL-60 (promyelocytic, leukemia), MCF-7 (breast adenocarcinoma), HeLa (cervical cancer), G361 (malignant melanoma), HOS (human osteosarcoma) and BJ (human foreskin fibroblasts)—were obtained from the American Type Culture Collection (Manassas, VA, USA). These cells were maintained in standard DMEM or RPMI medium (Sigma, MO, USA) supplemented with heat-inactivated fetal bovine serum (10%) with 2 mM L-glutamine and penicillin-streptomycin (1%) under standard cell culture conditions (37° C., 5% CO2 in a humid environment) and subcultured two or three times a week using a standard trypsinization procedure. Approximately 10,000 cells in 80 μl of medium were seeded in a 96-well microtiter plate. After 12 hours of incubation, the compounds to be tested were added in 20 μl aliquots. Control cultures were treated with DMSO alone. […] Serial, 3-fold dilutions (six in total, peak concentrations in 166 μM incubations) of each compound were tested. After 72 hours of incubation, Calcein AM solution (Molecular Probes) was added to a final concentration of 1 μg/ml and the cells were incubated for another hour. Free calcein fluorescence was then quantified using a Fluoroscan Ascent fluorometer (Microsystems), and the percentage of surviving cells in each well was calculated by dividing the OD obtained from each cell by the exposed cells by the mean OD obtained from control wells×100%, Finally, IC50 values (concentration causing a 50% decrease in cellular esterase activity) were calculated for each compound generated from dose-response curves (Krys̆tof et al., 2005, Bioorg. Med. Chem. Lett. 12, 3283-3286). The IC50 values reported here are averages obtained from at least three independent experiments, where the individual replication values fell within 20% of the average. Growth inhibition was calculated using the following equation: […](mean FDwell exposed to drug−mean FDblank)/(mean FDcontrol well−mean FDblank)×100%.
Cytoxicity of compounds was tested on panel of cell lines of different histogenetic and species origin.

[2] = system: MCF-7 (breast adenocarcinoma); experiment: In vitro cytotoxicity, Calcein AM assay, MCF7; assay type: cell-based; conditions: 3-day Calcein-AM assay
Outline: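 Metabolic viability assay, 72 h compound exposure of cells pre-incubated 12 h after seeding (~10,000 cells/well, 10% FBS, 2 mM L-glutamine); 1 h Calcein AM at 1 μg/ml final, green fluorescence measured against DMSO-treated controls.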

[3] = system: rose explants; experiment: In vitro and post vitro multiplication and rooting of rose; assay type: in vivo, Rosa multiflora; conditions: for Number of roots per plant / Overall length of plant (cm): Ex vitro, after four weeks of acclimatising in peat; for Number of new shoots per explant / Number of roots per explant / Overall length of explant (cm) / number of flowers per explant: In vitro, 10 μM cytokinin, 8 weeks
Experimental: The aim of this experiment was to test whether the new compounds are of practical use in tissue culture practice. The multiplication rate was investigated and the post vitro effects on rooting were examined Rosa hybrida (pot rose cultivar) was cultured in 350 ml vessels with a screw on polycarbonate lid. Each culture vessel contained 100 ml autoclaved medium (120° C., 20 min). The cultures were maintained at 23±2° C. under a 16 h photoperiod at 40 μM·m^−2 s^−1 PAR. The basal medium (BMR) contained Murashige and Skoog (1962) macroelements, microelements and vitamins, 95 μM NaFeEDTA, 555 μM myo-inositol, 111 mM sucrose, 1.332 mM glycine, 684 μM L-glutamine and 7 g/l agar. This medium was supplemented with 10 μM BAP, mT, or 3MeOBAP, or the corresponding mesylate salts. The control medium didn't contain any cytokinin After a culture period of 8 weeks, the number of induced shoots per explant was determined, as well as root number/explant and total root length/explant. The roots were removed and the explants (shoot clusters) were planted in unfertilised peat. After four weeks of acclimatising in a fog unit, root number and root length was determined. As expected, a cytokinin free medium yielded almost no new shoots. The original shoot explant grew out as a good quality single shoot that rooted very well. […] Explants growing on cytokininin mesylates were characterized by a high multiplication index (a large number of new shoots) and were more rooted in comparison with free bases. The use of cytokinin mesylates led to an increase in all monitored parameters in plant culture compared to free cytokinin bases.

[4] = system: retinal epitelium cells ARPE-19; experiment: Cytotoxicity for non-cancer cells, resazurine reduction assay, ARPE-19
Experimental: (§1) It is used for viability testing of both bacterial and eukaryotic cells. […] Cultivation medium was DMEM with 10% FBS. Before the experiment, the cells were subcultured for 2 weeks. For the cytotoxicity evaluation, the cells were trypsinized and pipetted into 96 well plates (5000 cells per well in 80 microliters). After 24 hours, 5× concentrated solutions of the tested compounds in the medium were added. […] IC50 values were calculated from dose response curves using drc library for R programming environment.

[5] = system: skin fibroblasts BJ; experiment: Cytotoxicity for non-cancer cells, resazurine reduction assay, BJ; conditions: human, 72 h
Experimental: as §1

[6] = resazurin, 72 hour treatment, ARPE-19

| Structure (SMILES) | IC50 [1] [µM] | IC50 ([2]; Homo sapiens, MCF7, 72 h) [µM] | Number of roots per plant [3] | Overall length of plant (cm) [3] [cm] | Number of new shoots per explant [3] | Number of roots per explant [3] | Overall length of explant (cm) [3] [cm] | number of flowers per explant [3] | Cytotoxicity for Fibroblasts (GI20) ARPE-19 [4, 6] [μM] | Cytotoxicity for Fibroblasts (GI20) BJ [5] [µM] | IC50 ([2]; mesylate) [µM] | Cytotoxicity for Fibroblasts (GI20) ARPE-19 ([4]; human, 72 h) [μM] | Number of roots per plant ([3]; listed as 6-benzylaminopurine) | Number of new shoots per explant ([3]; listed as 6-benzylaminopurine) |
| --- | --- | --- | --- | --- | --- | --- | --- | --- | --- | --- | --- | --- | --- | --- |
| COc1cccc(CNc2ncnc3nc[nH]c23)c1 [3MeOBAP, 6-(3-methoxybenzylamino)purine] | 125 | > 167 | 1.7 | 4.1 | 4.3 | 0.0 | 0.0 | 0.03 |  |  |  |  |  |  |
| CS(=O)(=O)O.c1ccc(CNc2ncnc3nc[nH]c23)cc1 [BAP mesylate, 6-benzylaminopurine mesylate] |  |  | 0.9 | 1.4 | 4.1 | 0.0 | 0.0 | 0.00 | >100 | >100 | > 167 |  |  |  |
| c1ccc(CNc2ncnc3nc[nH]c23)cc1 [BAP, 6-benzylaminopurine] |  | 166 | rooted badly | 1.1 | high shoot multiplication rate | 0.0 | 0.0 | 0.00 |  | 137.5 |  | >100 | 0.6 | 3.8 |
| CS(=O)(=O)O.Oc1cccc(CNc2ncnc3nc[nH]c23)c1 [mT mesylate, 6-(3-hydroxybenzylamino)purine mesylate] |  |  | 1.8 | 4.3 | 2.4 | 0.0 | 0.0 | 0.17 | >100 | >100 |  |  |  |  |
| Oc1cccc(CNc2ncnc3nc[nH]c23)c1 [meta-topolin (mT), 6-(3-hydroxybenzylamino)purine] | > 167 | > 167 | 1.4 | 3.8 | 2.1 | 0.0 | 0.0 | 0.16 | >100 | >100 |  |  |  |  |
| Oc1ccccc1CNc1ncnc2nc[nH]c12 [ortho-topolin (oT), 6-(2-hydroxybenzylamino)purine] | 103 | > 167 |  |  |  |  |  |  | >100 | 98.7 |  |  |  |  |

Source: patent US12570657B2, “Mesylate salts of heterocyclic cytokinins, compositions containing these derivatives and use thereof” (UNIVERZITA PALACKEHO V OLOMOUCI, priority 2020, dated 2026)
